Source: publication PMC8659243, “Design, Synthesis and Tumour-Selective Toxicity of Novel 1-[3-{3,5-Bis(benzylidene)-4-oxo-1-piperidino}-3-oxopropyl]-4-piperidone Oximes and Related Quaternary Ammonium Salts” (Molecules, 2021)
Counter-ions that a name gives are not always drawn.

Columns and labels:
[1] = tested on: Ca9-22, HSC-2 and HSC-4 cells; experiment: Average over Ca9-22, HSC-2 and HSC-4 neoplastic cells; assay type: cell-based, human; conditions: for CC50: Homo sapiens, average of Ca9-22, HSC-2 and HSC-4, read-out: Average CC50; for Average SI: average of SI for Ca9-22, HSC-2 and HSC-4
Protocol: In order to assess whether the compounds in series 3 and 4 are more toxic to neoplasms than non-malignant cells, selective index (SI) figures were calculated. In the in vivo situation, a tumour is surrounded by a number of non-malignant cells.
In order to identify the most promising lead compounds in terms of both cytotoxic potencies and favourable SI values, potency–selectivity expression (PSE) values were computed. […] Outstanding results may be noted for four compounds that have PSE values in excess of 100,000 namely 3d, 4c–e. […] However, the relative SI/PSE distribution patterns between series 3 and 4 (from a to h) are nearly superimposable with each other (Figure 3). […] It has been reported that 3,5-bis(3-iodo-5-methoxy-4-propoxybenzylidene)-N-acetylpiperidin-4-one inhibited tubulin and destabilization of microtubules, while 3,5-bis(3,4,5-trimethoxybenzylidene)-N-benzoylpiperidin-4-one destabilizes the microtubules. Thus, it remained to investigate whether compound 4d acts as an inhibitor of the microtubule.
(§1) A literature procedure was followed when the compounds in series 3 and 4 were evaluated against three human oral squamous cell carcinoma cell lines Ca9-22 (RCB-1976), HSC-2 (RCB1945), HSC-4 (RCB1902) (purchased from RIKEN Cell Bank, Tukuba, Japan) and three human normal oral cells, gingival fibroblast (HGF), periodontal ligament fibroblast (HPLF) and pulp cells (HPC) (established according to the guideline of the intramural ethic committee, A0808) except the duration of incubation was increased from 24 h to 48 h. In brief, various concentrations of the compounds were added to the DMEM media, which was supplemented by 10% heat-inactivated fetal bovine serum. Incubation was undertaken at 37 °C. At the completion of the experiment, cell viability was determined by the MTT method.

[2] = tested on: Colo205 cells; experiment: NCI in vitro screen, colon cancer Colo205; assay type: cell-based; conditions: Homo sapiens, COLO 205
From the text: (§2) One particular reference drug is 5-fluorouracil, which is used in treating colon cancers.

[3] = tested on: SW-620 cells; experiment: NCI in vitro screen, colon cancer SW-620; assay type: cell-based; conditions: Homo sapiens
From the text: as §2

[4] = tested on: HSC-2 cells; experiment: Cytotoxicity against HSC-2 cells, MTT method, 48 h; assay type: cell-based, human; conditions: for CC50: Homo sapiens, HSC-2, concentration required to kill 50% of the cells, 48 h, MTT; for SI HSC-2: average CC50 towards HGF, HPLF, HPC divided by CC50 against HSC-2
Protocol: as §1

[5] = tested on: RPMI-8226 cells; experiment: NCI in vitro screen, leukemia RPMI-8226; assay type: cell-based; conditions: Homo sapiens
From the text: (§3) In view of the encouraging result with CEM leukemic cells, consideration was given to an assessment in the NCI in vitro screening program. The oximes, but not the quaternary ammonium salts, were accepted for bioevaluation. Examination of the mean graphs confirms the sensitivity of leukemic cells to these compounds.

[6] = tested on: CEM T-lymphoblastic leukemia cells; experiment: Cytotoxicity against CEM cells, MTT method, 24 h; assay type: cell-based; conditions: Homo sapiens, CCRF-CEM, concentration required to inhibit cell growth by 50%
Protocol: The method used for the evaluation of various compounds against human CEM cells has been reported previously. In brief, cells were grown in RPMI-1640 medium supplemented with 10% heat-inactivated fetal bovine serum. Different concentrations of compounds were added to the media, and after 24 h incubation, cytotoxicity was measured by the MTT method.

[7] = tested on: HCC-2998 cells; experiment: NCI in vitro screen, colon cancer HCC-2998; assay type: cell-based; conditions: Homo sapiens
From the text: as §2

[8] = Cytotoxicity against non-malignant HGF cells, MTT method, 48 h; assay type: cell-based; conditions: human, gingival fibroblasts (HGF)
Protocol: as §1

[9] = tested on: colon cancer cells; experiment: NCI in vitro screen, average of colon cancer cells; assay type: cell-based; conditions: Homo sapiens
From the text: as §2

[10] = tested on: SR cells; experiment: NCI in vitro screen, leukemia SR; assay type: cell-based; conditions: Homo sapiens
From the text: as §3

[11] = tested on: HSC-4 cells; experiment: Cytotoxicity against HSC-4 cells, MTT method, 48 h; assay type: cell-based, human; conditions: for CC50: Homo sapiens, HSC-4, concentration required to kill 50% of the cells, 48 h, MTT, read-out: CC50 HSC-4; for SI HSC-4: average CC50 towards HGF, HPLF, HPC divided by CC50 against HSC-4
Protocol: as §1

[12] = tested on: HL-60 (TB) cells; experiment: NCI in vitro screen, leukemia HL-60 (TB); assay type: cell-based; conditions: Homo sapiens
From the text: as §3

[13] = tested on: HT29 cells; experiment: NCI in vitro screen, colon cancer HT29; assay type: cell-based; conditions: Homo sapiens, HT-29
From the text: as §2

[14] = tested on: Molt-4 cells; experiment: NCI in vitro screen, leukemia Molt-4; assay type: cell-based; conditions: Homo sapiens
From the text: as §3

[15] = tested on: KM12 cells; experiment: NCI in vitro screen, colon cancer KM12; assay type: cell-based; conditions: Homo sapiens
From the text: as §2

[16] = tested on: HCT-116 cells; experiment: NCI in vitro screen, colon cancer HCT-116; assay type: cell-based; conditions: Homo sapiens
From the text: as §2

[17] = tested on: Ca9-22 cells; experiment: Cytotoxicity against Ca9-22 cells, MTT method, 48 h; assay type: cell-based, human; conditions: for CC50: Homo sapiens, Ca9-22, concentration required to kill 50% of the cells, 48 h, MTT, read-out: CC50 Ca9-22; for SI Ca9-22: average CC50 towards HGF, HPLF, HPC divided by CC50 against Ca9-22
Protocol: as §1

[18] = tested on: HCT-15 cells; experiment: NCI in vitro screen, colon cancer HCT-15; assay type: cell-based; conditions: Homo sapiens
From the text: as §2

[19] = Cytotoxicity against non-malignant HPLF cells, MTT method, 48 h; assay type: cell-based; conditions: human, periodontal ligament fibroblasts (HPLF)
Protocol: as §1

[20] = Average over HGF, HPLF and HPC non-malignant cells; assay type: cell-based; conditions: human, HPLF and HPC non-malignant cells (average of the three)
Protocol: as §1

[21] = tested on: K-562 cells; experiment: NCI in vitro screen, leukemia K-562; assay type: cell-based; conditions: Homo sapiens, K562
From the text: as §3

[22] = tested on: All Cell Lines; experiment: NCI in vitro screen, all cell lines; assay type: cell-based; conditions: Homo sapiens
From the text: as §2

[23] = tested on: leukemia cells; experiment: NCI in vitro screen, average of leukemia cells; assay type: cell-based; conditions: Homo sapiens
From the text: as §3

[24] = Cytotoxicity against non-malignant HPC cells, MTT method, 48 h; assay type: cell-based; conditions: human, pulp cells (HPC)
Protocol: as §1

| SMILES | CC50 [1] [nM] | Average SI [1] | IC50 [2] [nM] | IC50 [3] [nM] | CC50 [4] [nM] | SI HSC-2 [4] | IC50 [5] [nM] | IC50 [6] [nM] | IC50 [7] [nM] | CC50 at 48 h [8] [nM] | IC50 [9] [nM] | IC50 [10] [nM] | CC50 [11] [nM] | SI HSC-4 [11] | IC50 [12] [nM] | IC50 [13] [nM] | IC50 [14] [nM] | IC50 [15] [nM] | IC50 [16] [nM] | CC50 [17] [nM] | other results |
| --- | --- | --- | --- | --- | --- | --- | --- | --- | --- | --- | --- | --- | --- | --- | --- | --- | --- | --- | --- | --- | --- |
| Cc1ccc(/C=C2\CN(C(=O)CCN3CCC(=NO)CC3)C/C(=C\c3ccc(C)cc3)C2=O)cc1 [Compound 3f, (3~{E},5~{E})-3,5-bis[(4-methylphenyl)methylene]-1-[3-(4-hydroximino-1-piperidyl)propanoyl]piperidin-4-one hydrochloride] | 550 | 13.9 | 1150 | 290 | 750 ± 40 | 9.57 | 300 | 8420 ± 1100 | 1580 | 5700 ± 650 | 650 | 310 | 430 ± 120 | 16.7 | 1700 | 350 | 370 | 280 | 360 | 470 ± 40 | SI Ca9-22 [17]: 15.3; IC50 [18]: 550 nM; CC50 at 48 h [19]: 8000 ± 200 nM; CC50 at 48 h [20]: 7180 nM; IC50 [21]: 320 nM; IC50 [22]: 1230 nM; IC50 [23]: 550 nM; CC50 at 48 h [24]: 7850 ± 7100 nM |
| O=C1/C(=C/c2ccccc2)CN(C(=O)CCN2CCC(=NO)CC2)C/C1=C\c1ccccc1 (as salt: hydrochloride) [Compound 3a, (3~{E},5~{E})-3,5-bis-benzylidine-1-[3-(4-hydroximino-1-piperidyl)propanoyl]piperidin-4-one hydrochloride] | – | – | – | – | – | – | – | – | – | – | – | – | – | – | – | – | – | – | – | – | melting point: 172.3 °C |
| COc1cc(/C=C2\CN(C(=O)CCN3CCC(=NO)CC3)C/C(=C\c3cc(OC)c(OC)c(OC)c3)C2=O)cc(OC)c1OC [Compound 3h, (3~{E},5~{E})-1-[3-(4-hydroximino-1-piperidyl)propanoyl]-3,5-bis[(3,4,5-trimethoxyphenyl)methylene]piperidin-4-one] | 200 | 22.5 | 260 | 300 | 230 ± 20 | 13.4 | 320 | 2310 ± 300 | 210 | 2180 ± 230 | 390 | 300 | 300 ± 150 | 10.2 | 270 | 330 | 290 | 200 | 210 | 70 ± 30 | SI Ca9-22 [17]: 43.9; IC50 [18]: 1230 nM; CC50 at 48 h [19]: 5220 ± 690 nM; CC50 at 48 h [20]: 3070 nM; IC50 [21]: 320 nM; IC50 [22]: 1220 nM; IC50 [23]: 300 nM; CC50 at 48 h [24]: 1800 ± 600 nM |
| O=C1/C(=C/c2ccc(F)cc2)CN(C(=O)CCN2CCC(=NO)CC2)C/C1=C\c1ccc(F)cc1 [Compound 3b, (3~{E},5~{E})-3,5-bis[(4-fluorophenyl)methylene]-1-[3-(4-hydroximino-1-piperidyl)propanoyl]piperidin-4-one hydrochloride] | 430 | 31.5 | 1500 | 200 | 730 ± 130 | 14.3 | 290 | 1780 ± 210 | 1410 | 7120 ± 40 | 610 | 250 | 200 ± 80 | 52.0 | 1550 | 320 | 330 | 230 | 220 | 370 ± 190 | SI Ca9-22 [17]: 28.1; IC50 [18]: 370 nM; CC50 at 48 h [19]: 9730 ± 230 nM; CC50 at 48 h [20]: 10400 nM; IC50 [21]: 350 nM; IC50 [22]: 1150 nM; IC50 [23]: 520 nM; CC50 at 48 h [24]: 14200 ± 2000 nM |
